Assay results as given in US4590203A, “Derivatives of thiophene-2-carboxylic acid and their pharmaceutically acceptable acid or base addition salts and use in treatment of conditions caused by thromboxane A2” (Laevosan-Gesellschaft m.b.H. & Co. KG, priority 1982, dated 1986).

Legend:
platelet aggregation [1] = test: collagen induced platelet aggregation; format: cell-based, human; conditions: 1-2 μg/ml collagen; concentration not given
Procedure: (§1) In 0,6 IU/ml thrombin stimulated human washed platelets the IC50 (μM) for inhibition of TX formation (measured by TXB2 specific radioimmunoassay) was 1,1 for LG 82-4-00 and 1,3 for LG 82-4-01. The two substances inhibited TXB2 -formation and 1-2 μg/ml collagen induced platelet aggregation by more than 95%.

thromboxane synthetase = target: T1, thromboxane synthetase (Homo sapiens, UniProt P24557); test: inhibition of thromboxane (TX) formation in thrombin stimulated washed platelets, TXB2 specific radioimmunoassay; format: cell-based; conditions: for IC50: 0,6 IU/ml thrombin stimulated human washed platelets, TXB2 specific radioimmunoassay; for inhibition of TXB2-formation: concentration not given; for specificity as inhibitor of thromboxane synthetase: in vitro-study, inhibition of TX formation on platelet aggregation
T1 construct: thrombin stimulated human washed platelets; endogenous in cells; host or cells: human washed platelets
T1 sequence (P24557 1-533): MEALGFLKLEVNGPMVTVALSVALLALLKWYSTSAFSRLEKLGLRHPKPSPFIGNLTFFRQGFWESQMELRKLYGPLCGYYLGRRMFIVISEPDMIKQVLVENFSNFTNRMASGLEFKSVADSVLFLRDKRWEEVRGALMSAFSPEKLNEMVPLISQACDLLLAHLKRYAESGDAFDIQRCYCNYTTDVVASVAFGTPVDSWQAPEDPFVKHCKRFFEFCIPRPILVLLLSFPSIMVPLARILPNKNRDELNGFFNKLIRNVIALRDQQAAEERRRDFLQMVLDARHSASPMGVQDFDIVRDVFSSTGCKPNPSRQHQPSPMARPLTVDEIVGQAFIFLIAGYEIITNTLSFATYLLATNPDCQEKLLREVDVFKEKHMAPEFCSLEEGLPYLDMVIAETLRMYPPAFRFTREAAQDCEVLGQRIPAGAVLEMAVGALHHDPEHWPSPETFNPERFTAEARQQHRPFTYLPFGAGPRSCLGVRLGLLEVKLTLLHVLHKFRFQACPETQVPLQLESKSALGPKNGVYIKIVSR
Procedure: as §1

platelet aggregation [2] = test: proaggregatory activity and primary wave ADP aggregation; format: cell-based
From the text: Neither LG 82-4-00 nor LG 82-4-01 had vasoconstrictor, proaggregatory or antagonistic activity or affected primary wave ADP aggregation (P >0,05).

IC50 (thromboxane synthetase) [nM] | inhibition of TXB2-formation (thromboxane synthetase) | SMILES | inhibition of collagen induced platelet aggregation (platelet aggregation [1]) | specificity as inhibitor of thromboxane synthetase (thromboxane synthetase) | proaggregatory activity (platelet aggregation [2])
1100 | more than 95% | Cl.O=C(O)c1ccc(OCCn2ccnc2)s1 [LG 82-4-00, 5-[2-(1-Imidazolyl)-1-ethoxy]thiophene-2-carboxylic acid hydrochloride] | more than 95% | specific inhibitors of thromboxane synthetase | Neither
1300 | more than 95% | Cl.O=C(O)c1cc(Cl)c(OCCn2ccnc2)s1 [LG 82-4-01, 4-Chloro-5-[2-(1-imidazolyl)-1-ethoxy]-thiophene-2-carboxylic acid hydrochloride] | more than 95% | specific inhibitors of thromboxane synthetase | Neither
